Usually EC50 stands for the concentration needed to bring the measured effect to its halfway point.

This test concerns the target T1, 5-HT1D-like receptor (Oryctolagus cuniculus, UniProt P49144).
T1 construct: Ring segments of the vein (4-5 mm in length) were cut and the endothelium gently removed; from tissue; host or cells: saphenous vein rings (endothelium removed) of male New Zealand White rabbits
Briefly: Agonist assay: contraction of rabbit isolated saphenous vein (5-HT1D-like receptor agonist activity). On the set-up: species or system rabbit (male New Zealand White).

Setting [1] is: rabbit isolated saphenous vein ring segments, concentration causing 50% of the maximum contraction effected by the compound, with prazosin, idazoxan and indomethacin, 37° C., pH 7.4, read-out: EC50.

Like-named read-outs stand apart in the source and are kept apart here.

T1 sequence (P49144 whole entry): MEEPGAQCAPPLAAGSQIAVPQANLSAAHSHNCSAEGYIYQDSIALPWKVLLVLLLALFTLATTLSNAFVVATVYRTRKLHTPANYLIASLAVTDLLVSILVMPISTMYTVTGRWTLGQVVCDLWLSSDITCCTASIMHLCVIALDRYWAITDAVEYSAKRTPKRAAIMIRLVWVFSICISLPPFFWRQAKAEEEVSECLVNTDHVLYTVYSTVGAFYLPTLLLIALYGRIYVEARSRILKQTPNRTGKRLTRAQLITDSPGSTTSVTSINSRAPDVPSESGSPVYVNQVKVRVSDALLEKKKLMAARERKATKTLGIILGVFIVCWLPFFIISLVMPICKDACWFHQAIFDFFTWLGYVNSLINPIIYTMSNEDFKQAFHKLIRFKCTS

Turning to `C1=C(c2ccc3[nH]cc(CCN4CCCC4)c3c2)CCN(Cc2ccccc2)C1` [Example 15, 5-(1-Aza-1-benzylcyclohex-3-en-4-yl)-3-(2-pyrrolidinylethyl)-1H-indole], under setting [1], the EC50 amounted to 220 nM.

`CN(C)CCc1c[nH]c2ccc(C3=CCCCC3)cc12` [Example 9a, 5-(Cyclohex-1-en-1-yl)-3-[2-(N,N-dimethylamino)ethyl]-1H-indole] returned an EC50 of 960 nM.

Compound `CN(C)CCc1c[nH]c2ccc(C3CCCCO3)cc12` (centres unmarked) [Example 9b, 3-[2-(N,N-Dimethylamino)ethyl]-5-(tetrahydropyran-2-yl)-1H-indole] showed an EC50 of 160 nM.

As to `CN(C)CCc1c[nH]c2ccc(C3CCCCC3)cc12` [Example 17a, 5-Cyclohexyl-3-[2-(N,N-dimethylamino)ethyl]-1H-indole], it took 250 nM to reach a half-maximal effect (EC50).

In the case of `CN1CCC[C@H]1Cc1c[nH]c2ccc(C3CCN(C(=O)OC(C)(C)C)CC3)cc12` [Example 17d, (S)-5-(1-Aza-1-tert-butoxycarbonylcyclohex-4-yl)-3-[(N-methylpyrrolidin-2-yl)methyl]-1H-indole], the EC50 under setting [1] was 750 nM.

The record behind these values is patent US5998438A, “5-cyclo indole compounds” (Allelix Biopharmaceuticals, Inc., priority 1997, dated 1999).
